How the values were obtained:
[1] = Body weight and fasting plasma parameters in diabetic and hypercortisolemic rats; format: in vivo, rat
Protocol: (§1) All animal procedures were performed in accordance with the NIH Guidance for the Care and Use of Laboratory Animals. The current study used, respectively the GK and Dexamethasone-treated rats as models for diabetes and hypercortisolemia. Dexamethasone was administered subcutaneously at a dose of 2.5 μg/kg body weight in the morning (8:00 AM) and in the evening (8:00 PM) for a duration of four weeks before wounding and this form of therapy continued during the course of healing. […] Weight and age-matched female Wistar rats (Kuwait University breeding colony) served as the corresponding controls. All of the animals were maintained under standard conditions with 12 hours on/off light cycle, commercial diet, and water ad libitum. GK rats destined for wounding were initially matched with regard to body weight (e.g., 230 to 250 g), and plasma levels of glucose, free fatty acids and insulin. These indices are commonly used to reflect the severity of the diabetic state.
(§2) Animals used for IGF-1 sensitivity (n=6/group) and wound healing (n=8) studies were partitioned into five study groups including control, diabetic, hypercortisolemic, diabetic+EUK and hypercortisolemic+EUK. The EUK-134 was administered for duration of four weeks before wound induction and it continued during the course of healing.

IRS-1 = IRS-1 Tyr612 phosphorylation, immunoprecipitation/western blotting in dermal fibroblasts; format: cell-based, rat
Protocol: (§3) Primary dermal fibroblasts were obtained from dorsal skin of female Goto Kakizaki (GK, age 12-15 months) rats, a model for non-obese type 2 diabetes, and their Wistar control counterparts. After sterilization in povidine solution, rat skin was washed in sterile water and rinsed in 70% ethanol in PBS. Epidermis and dermis were separated following overnight incubation in 0.25% trypsine/EDTA at 4 C. Dermis was cut into small pieces and incubated in Dulbecco's modified Eagle medium (DMEM; Invitrogen) containing collagenase (250 U/ml; Sigma) for thirty min at 37 C in 5% CO2 with constant agitation. The sections were triturated vigorously to release fibroblasts, which were collected by centrifugation. The cell pellet was washed two times with PBS, re-suspended in complete medium (DMEM supplemented with 10% fetal calf serum, penicillin (100 U/ml), streptomycin (100 μg/ml)), 2 mM L-glutamine and 10 mM HEPES) and then cultured under a standard condition.
(§4) A hypercortisolemic state was mimicked by exposing control fibroblasts to dexamethasone (Dexa, Sigma) administered at 20 ng/ml every other day for a duration of 8 days. Similarly, the state of low-grade inflammation in fibroblasts was recapitulated experimentally by exposing these cells to TNF-α (4 ng/ml every day for 4 days). […] The concentration of IGF-1 (50 ng/ml, Peprotech) was determined by prior dose response experiment.
Levels/activities of key intracellular molecules in the IGF-1 signaling cascade including IRS-1, IRS-1 Tyr-p-612, PI3K-p85α, IRS-1 Ser-p (307), PI3K, Akt, p-Akt, INK and p-JNK were assessed using western blotting/immunoprecipitation and commercially available ELISA-based assays.
Ice-cold radioimmunoprecipitation assay (RIPA) buffer was used for the extraction of proteins from fibroblasts. Immunoprecipitation was achieved by incubating cell homogenates with anti-IRS-1 antibody overnight at 4° C. followed by the addition of protein A/G-Agarose for additional two hours. Immunoprecipitates were separated using spin-collection filters (Cytosignal), washed once with RIPA buffer/3× with PBS and then elutated by the addition of Laemmli buffer. […] Antigen-antibody complexes were visualized by an enhanced chemiluminescence system on BioMax Light Film (Kodack) and then the densitometry was analyzed using Quantity One 1-D image software (BioRad, GS 800). All densitometry data were corrected for equal loading using the house keeping gene β-actin and they were expressed as fold change vs. control.

[2] = Rapid insulin sensitivity test (RIST) with IGF-1 instead of insulin; format: in vivo, rat
Protocol: as §1, §2
IGF-1 sensitivity in control, diabetic and hypercortisolemic animals was determined using the rapid insulin sensitivity test (RIST) with IGF-1 (200 μg/kg BW) infused instead of insulin. The RIST index is the amount of glucose per kg body weight required to maintain euglycemia following a bolus of insulin (50 mU/kg BW).

dermal fibroblasts [3] = assay: BrdU cell proliferation assay in fibroblasts; format: cell-based, rat
Protocol: as §3, §4
(§5) The proliferation and collagen synthesis of cultured fibroblasts were determined using, respectively the 5-bromo-2-deoxyuridine (BrdU) incorporation into DNA and a radiolabelled proline uptake assay.
Cells were seeded into 96-microtiter plates at a concentration of 1.5×10^4 and allowed to adhere overnight in DMEM supplemented with 10% FCS. After arrest by incubation in DMEM supplemented with 0.5% FCS for 24 hrs, cells were exposed to IGF-I (50 ng/ml) in DMEM containing […] 5-bromo-2-deoxyuridine (BrdUrd). Incorporation of BrdUrd into DNA was estimated using 5-bromo-2-deoxyuridine labeling and detection kit (Roche Applied Science) according to the manufacturer's instructions.

[4] = system: reactive oxygen species (ROS); assay: ROS generation in cultured fibroblasts (DCF-DA); format: cell-based, rat; conditions: fibroblasts with diabetic, inflammatory or hypercortisolemia phenotypes; ROS suppressors
Protocol: as §3, §4
ROS generation in cultured fibroblasts was evaluated using dichloroflurescein-diacetate (DCF-DA, Molecular Probes), a probe that is oxidized to the fluorescent product DCF upon exposure to hydrogen peroxide, peroxynitrite, hydroxyl radical and nitric oxide. Its concentration serves as an indicator of the overall degree of intracellular oxidative stress.
Cells seeded in 96-well plates were incubated for thirty minutes at 37 C in serum free media containing 5 μM of DCF-DA. The plates were then washed twice with Krebs Ringer Buffer (KR) and the fluorescence readings were taken every 15 min for 1 hr at Ex=485 and Em=530. Subtracted background values were obtained from wells containing DCF-DA without cells. […]

excisional wounds = assay: Full-thickness excisional wound healing, 7 days; format: in vivo, rat; conditions: diabetic/hypercortisolemic rat wounds, antioxidant administered
Protocol: as §1, §2
Animals derived from various experimental groups were anesthetized by ip, injection of 90 mg ketamine+10 mg xylazine/kg body weight, and their back skin was shaved, depilated with Nair and cleaned with 70% alcohol. Six bilateral full-thickness excisional wounds (8 mm in diameter) at equidistant from midline were created on the dorso-rostral back skin. Wounds were separated by a minimum of 1 cm of uninjured skin. […] The wound area was analyzed using Adobe PhotoShop (version 7.0; Adobe Systems) and the percentage of wound closure was derived by the following formula: (1−[current wound size/initial wound size])×100.

Akt [5] = assay: Akt phosphorylation, western blotting in dermal fibroblasts; format: cell-based, rat; conditions: normal fibroblasts exposed to IGF-1; western blot
Protocol: as §3, with “The cell pellet was washed two times with PBS, re-suspended in complete medium (DMEM supplemented with 10% fetal calf serum, penicillin (100 U/ml), streptomycin (100 μg/ml)), 2 mM L-glutamine and 10 mM HEPES) and then cultured under a standard condition.” left out
(§6) A hypercortisolemic state was mimicked by exposing control fibroblasts to dexamethasone (Dexa, Sigma) administered at 20 ng/ml every other day for a duration of 8 days. […] The concentration of IGF-1 (50 ng/ml, Peprotech) was determined by prior dose response experiment.
(§7) Levels/activities of key intracellular molecules in the IGF-1 signaling cascade including IRS-1, IRS-1 Tyr-p-612, PI3K-p85α, IRS-1 Ser-p (307), PI3K, Akt, p-Akt, INK and p-JNK were assessed using western blotting/immunoprecipitation and commercially available ELISA-based assays. […]

[6] = diabetic patients, cited from earlier work
Akt [7] = assay: Akt phosphorylation, FACE cell-based ELISA in fixed fibroblasts; parameters: species or system rat; conditions: normal fibroblasts exposed to IGF-1
Protocol: as §3, with “The cell pellet was washed two times with PBS, re-suspended in complete medium (DMEM supplemented with 10% fetal calf serum, penicillin (100 U/ml), streptomycin (100 μg/ml)), 2 mM L-glutamine and 10 mM HEPES) and then cultured under a standard condition.” left out
as §6
Activation of Akt and JNK was analyzed in fixed fibroblasts using FACE-Akt and FACE-JNK (both from Active Motife). […] Labeling with antibodies was conducted according to the manufacturer's protocol and the resulting phosphoantibody signal was calculated after correction for number of cells and total Akt or JNK levels in each sample. […]

PI3K-p85α / IRS-1 = assay: Co-precipitation of PI3K p85α with IRS-1 in dermal fibroblasts; format: cell-based, rat; conditions: fibroblasts exposed to IGF-1
Protocol: as §3, with “The cell pellet was washed two times with PBS, re-suspended in complete medium (DMEM supplemented with 10% fetal calf serum, penicillin (100 U/ml), streptomycin (100 μg/ml)), 2 mM L-glutamine and 10 mM HEPES) and then cultured under a standard condition.” left out
as §6, §7

dermal fibroblasts [8] = assay: Radiolabelled proline uptake assay (collagen synthesis) in fibroblasts; format: cell-based, rat; conditions: control fibroblasts, IGF-1
Protocol: as §3, with “The cell pellet was washed two times with PBS, re-suspended in complete medium (DMEM supplemented with 10% fetal calf serum, penicillin (100 U/ml), streptomycin (100 μg/ml)), 2 mM L-glutamine and 10 mM HEPES) and then cultured under a standard condition.” left out
as §6, §5
A radiolabel proline uptake assay was used in the quantification of the rate of collagen synthesis in cultured fibroblasts derived from various experimental groups. […]

PI3K = PI3K ELISA kinase assay on fibroblast lysates; format: cell-based, rat; conditions: fibroblasts exposed to IGF-1
Protocol: as §3, §6
PI3K activity was measured using PI3K ELISA (Echelon Biosciences Inc). […]

[9] = Wistar rats, dexamethasone 2.5 μg/kg sc twice daily (hypercortisolemia model)
[10] = fibroblasts with diabetic, inflammatory or hypercortisolemia phenotypes, ROS suppressors

C[C@@H]1C[C@H]2[C@@H]3CCC4=CC(=O)C=C[C@]4(C)[C@@]3(F)[C@@H](O)C[C@]2(C)[C@@]1(O)C(=O)CO [Dexa, dexamethasone]
FBG (fasting blood glucose) [1, 9]: 78 ± 9 mg/dL
FFA (free fatty acid) [1, 9]: 706 ± 25 µM
FPI (fasting plasma insulin) [1, 9]: 0.78 ± 0.061 ng/mL

O=C(O)CCCCC1CCSS1 (stereo not drawn) [α-lipoic acid]
common defect in IGF-1 signaling (IRS-1; [10]): correct the common defect in IGF-1 signaling
improvement of glucose metabolism in response to bolus injection of IGF-1 ([2]; diabetic/hypercortisolemic rats, chronic administration of antioxidant): about 20%
abnormalities regarding lipid and carbohydrate profiles ([1]; diabetic and hypercortisolemic rats, chronic treatment with ROS suppressors): ameliorated
impairment in key fibroblast functions (collagen synthesis, cell proliferation, migration, contraction) (dermal fibroblasts [3]; [10]): ameliorates
HSOS (oxidative stress) [4]: lessen the HSOS
healing rates of wounds (excisional wounds): statistically indistinguishable from control rat wounds treated with IGF-1 alone

IGF-1
phosphorylation of Tyr612 on IRS-1 (IRS-1; control fibroblasts exposed to IGF-1 (50 ng/ml)): induces rapid phosphorylation
glucose metabolized in response to bolus injection of IGF-1 (RIST) ([2]; rats with diabetic complications or chemically-induced hypercortisolemia): about 125 mg glucose per kg body weight
glucose metabolized in response to bolus injection of IGF-1 (RIST) ([2]; untreated rats): 175 mg glucose per kg
Akt phosphorylation (Akt [5]): phosphorylated (activated)
glucose metabolism response to IGF-1 ([6]; 26 pmol continuous infusion): virtually no response
decrease of response to IGF-1 relative to healthy adults ([6]; 52 pmol continuous infusion): ~40%
Akt phosphorylation (Akt [7]): phosphorylated (activated)
PI3K activation (p85α co-precipitated with IRS-1) (PI3K-p85α / IRS-1): activates PI3K
increase in collagen synthesis (dermal fibroblasts [8]): about 63%
PI3K enzymatic activity (PI3K): increases PI3K enzymatic activity
increase in BrdU incorporation compared with medium only control (dermal fibroblasts [3]; control fibroblasts, IGF-1 50 ng/ml, 24 hours): ~5 fold
reduction of IGF-1 action in inducing DNA synthesis (dermal fibroblasts [3]; diabetic fibroblasts): about 46%
reduction of IGF-1 action in inducing DNA synthesis (dermal fibroblasts [3]; hypercortisolemic fibroblasts): ~36%

From US8637461B2, “Method of diagnosing and treating oxidative stress-impaired wound healing” (Kuwait University, priority 2011, dated 2014)
